According to article PMC12638379, “An innovative approach to development of new pyrazolylquinolin-2-one hybrids as dual EGFR and BRAF^V600E inhibitors” (Molecular Diversity, 2025):
Where two headings read alike, the source gives them in different places.

Tested on: NCI 60 cancer cell lines
Test: NCI anticancer screening over a panel of 60 cancer cells, single concentration 10 µM
Assay type: cell-based, human
Conditions: Homo sapiens, read-out: Growth inhibition (GI %)
Description: Ten final compounds 4a–j and five intermediates 2a–e have been selected by the National Cancer Institute (NCI) for anticancer screening over a panel of 60 cancer cells that cover a variety of histological tissues, including the central nervous system, leukemia, lung, colon, kidney, ovary, breast, and prostate, using the protocol established by the National Cancer Institute (NCI). In a primary screening, each compound was screened at a concentration of 10 µM.
Compounds 2a-e and 4a-j were selected by the National Cancer Institute (NCI) according to the protocol of the Compound Evaluation Branch of the National Cancer Institute, Bethesda, USA, for in vitro anticancer screening which refers in turn to apoptotic activity. The methodology of the NCI anticancer screening has been described in detail elsewhere (http://www.dtp.nci.nih.gov).

## COc1ccc2[nH]c(=O)cc(-n3ncc(C(C)=O)c3C)c2c1 [Compound 2c, 4-(4-Acetyl-5-methyl-1H-pyrazol-1-yl)-6-methoxyquinolin-2(1H)-one]
786-0, Renal cancer 786-0, 10 μM
  inhibition at 10 µM: < 5%
A498, Renal cancer A498, 10 μM
  inhibition at 10 µM: < 5%
A549, Non-small cell lung cancer A549/ATCC, 10 μM
  inhibition at 10 µM: < 5%
ACHN, Renal cancer ACHN, 10 μM
  inhibition at 10 µM: < 5%
BT-549, Breast cancer BT-549, 10 μM
  inhibition at 10 µM: < 5%
CAKI-1, Renal cancer CAKI-1, 10 μM
  inhibition at 10 µM: 15.6%
CCRF-CEM, Leukemia CCRF-CEM, 10 μM
  inhibition at 10 µM: 5.28%
COLO 205, Colon cancer COLO 205, 10 μM
  inhibition at 10 µM: < 5%
DU-145, Prostate cancer DU-145, 10 μM
  inhibition at 10 µM: < 5%
EKVX, Non-small cell lung cancer EKVX, 10 μM
  inhibition at 10 µM: 6.27%
HCC 2998, Colon cancer HCC-2998, 10 μM
  inhibition at 10 µM: < 5%
HCT-15, Colon cancer HCT-15, 10 μM
  inhibition at 10 µM: < 5%
HCT-116, Colon cancer HCT-116, 10 μM
  inhibition at 10 µM: 7.78%
HL-60, Leukemia HL-60(TB), 10 μM
  inhibition at 10 µM: 12.5%
HOP-62, Non-small cell lung cancer HOP-62, 10 μM
  inhibition at 10 µM: 18.8%
HOP-92, Non-small cell lung cancer HOP-92, 10 μM
  inhibition at 10 µM: 31.6%
HT-29, Colon cancer HT29, 10 μM
  inhibition at 10 µM: < 5%
Hs-578T, Breast cancer HS 578T, 10 μM
  inhibition at 10 µM: < 5%
IGROV-1, Ovarian cancer IGROV1, 10 μM
  inhibition at 10 µM: < 5%
K562, Leukemia K-562, 10 μM
  inhibition at 10 µM: < 5%
KM12, Colon cancer KM12, 10 μM
  inhibition at 10 µM: < 5%
LOX IMVI, Melanoma LOX IMVI, 10 μM
  inhibition at 10 µM: 11.3%
Leukemia SR, 10 μM
  inhibition at 10 µM: 8.98%
MCF7, Breast cancer MCF7, 10 μM
  inhibition at 10 µM: < 5%
MDA-MB-231, Breast Cancer MDA-MB 231/ATCC, 10 μM
  inhibition at 10 µM: 7%
MDA-MB-435, Melanoma MDA-MB-435, 10 μM
  inhibition at 10 µM: < 5%
MDA-MB-468, Breast cancer MDA-MB-468, 10 μM
  inhibition at 10 µM: < 5%
MOLT-4, Leukemia MOLT-4, 10 μM
  inhibition at 10 µM: < 5%
Malme-3M, Melanoma MALME-3M, 10 μM
  inhibition at 10 µM: < 5%
Melanoma M14, 10 μM
  inhibition at 10 µM: < 5%
NCI-H23, Non-small cell lung cancer NCI-H23, 10 μM
  inhibition at 10 µM: < 5%
NCI-H226, Non-small cell lung cancer NCI-H226, 10 μM
  inhibition at 10 µM: 7.15%
NCI-H322M, Non-small cell lung cancer NCI-H322M, 10 μM
  inhibition at 10 µM: 7.11%
NCI-H460, Non-small cell lung cancer NCI-H460, 10 μM
  inhibition at 10 µM: < 5%
NCI-H522, Non-small cell lung cancer NCI-H522, 10 μM
  inhibition at 10 µM: 8.32%
NCI/ADR-RES, Ovarian cancer NCI/ADR-RES, 10 μM
  inhibition at 10 µM: < 5%
OVCAR-3, Ovarian cancer OVCAR-3, 10 μM
  inhibition at 10 µM: < 5%
OVCAR-4, Ovarian cancer OVCAR-4, 10 μM
  inhibition at 10 µM: < 5%
OVCAR-5, Ovarian cancer OVCAR-5, 10 μM
  inhibition at 10 µM: < 5%
OVCAR-8, Ovarian cancer OVCAR-8, 10 μM
  inhibition at 10 µM: < 5%
Prostate cancer PC-3, 10 μM
  inhibition at 10 µM: 13.4%
RPMI-8226, Leukemia RPMI-8226, 10 μM
  inhibition at 10 µM: 11.7%
RXF 393, Renal cancer RXF 393, 10 μM
  inhibition at 10 µM: < 5%
SF-268, CNS Cancer SF-268, 10 μM
  inhibition at 10 µM: < 5%
SF-295, CNS Cancer SF-295, 10 μM
  inhibition at 10 µM: < 5%
SF-539, CNS Cancer SF-539, 10 μM
  inhibition at 10 µM: < 5%
SK-MEL-2, Melanoma SK-MEL-2, 10 μM
  inhibition at 10 µM: < 5%
SK-MEL-5, Melanoma SK-MEL-5, 10 μM
  inhibition at 10 µM: < 5%
SK-MEL-28, Melanoma SK-MEL-28, 10 μM
  inhibition at 10 µM: < 5%
SK-OV-3, Ovarian cancer SK-OV-3, 10 μM
  inhibition at 10 µM: 7.83%
SN12C, Renal cancer SN12C, 10 μM
  inhibition at 10 µM: < 5%
SNB-19, CNS Cancer SNB-19, 10 μM
  inhibition at 10 µM: < 5%
SNB-75, CNS Cancer SNB-75, 10 μM
  inhibition at 10 µM: 11.8%
SW-620, Colon cancer SW-620, 10 μM
  inhibition at 10 µM: < 5%
T47D, Breast cancer T-47D, 10 μM
  inhibition at 10 µM: 9.18%
TK-10, Renal cancer TK-10, 10 μM
  inhibition at 10 µM: < 5%
U-251, CNS Cancer U251, 10 μM
  inhibition at 10 µM: 5.38%
UACC-62, Melanoma UACC-62, 10 μM
  inhibition at 10 µM: < 5%
UACC-257, Melanoma UACC-257, 10 μM
  inhibition at 10 µM: < 5%
UO-31, Renal cancer UO-31, 10 μM
  inhibition at 10 µM: 34.4%
